Patent US20150315241A1, “Antibiotic Peptides” (priority 2007, published 2015)
≈ marks a conversion by molar mass, not a printed value. Like-named read-outs stand apart in the source and are kept apart here. Where a SMILES comes first, the peptide text is derived from it. Where no end group is shown, it is not given here. [ ]: non-standard residue; d: D form. The star is where a group is joined. Orn(α-tetramethylguanidino) = CN(C)C(=N[C@@H](CCCN)C(=O)*)N(C)C; hArg = N=C(N)NCCCC[C@H](N)C(=O)O; Orn = NCCC[C@H](N)C(=O)O

Key:
in vitro = in vitro ADME, mouse; settings: 37° C.
Protocol: Serum stability studies were carried out in duplicate as described by Hoffmann et al.. Briefly, 28 μL of an aqueous peptide or peptidomimetics solution (0.5 mg/mL) was added to 0.2 mL freshly pooled 25% mouse serum (Sigma-Aldrich GmbH, Taufkirchen, Germany) in water. The mixtures were incubated at 37° C. under gentle stirring. The proteins were precipitated with 40 μL of 15% aqueous TCA after incubation times of 0, 0.5, 1, 2, 4 and 6 h at 0° C. for 20 min before centrifuged (13500×G) at 4° C. for 5 min. The supernatants of all samples (240 μL) were neutralized with 1 mol/L aqueous NaOH and immediately stored at −20° C. The supernatants were analyzed by RP-HPLC using a linear acetonitrile gradient as described above with 0.1% TFA as ion pair reagent. Collected fractions of the main peaks were further analyzed by tandem mass spectrometry (MALDI-TOF/TOF-MS, 4700 Proteomics Analyzer, Applied Biosystems GmbH, Weiterstadt, Germany) in positive ion reflector mode using α-cyanohydroxycinnamic acid (50% CH3CN in 0.1% aqueous TFA) as matrix to identify the degradation products of the peptides and peptidomimetics, i.e., metabolites, at the different time points. Serum control samples consisted of 200 μL of pooled 25% mouse serum in water, which were also precipitated with 40 μL 15% aqueous TCA, as described before. Peptide reference samples consisted of 28 μL of the peptide stock solution diluted in 0.2 mL water and 40 μL of 15% aqueous trichloroacetic acid (TCA).

E. coli 45849 = experiment: Growth inhibition assay (MIC); format: cell-based, Escherichia coli; settings: multidrug resistant strain; 1% TSB, 37° C., 20 hrs
Protocol: (§1) The minimal inhibition concentrations (MIC) of the apidaecin-derived peptides and peptide-derivatives were determined by a growth inhibition assay using a serial peptide dilution in sterilized round-bottom 96-well plates (polystyrene, U-bottom, Greiner Bio-One GmbH) with a final volume of 100 μL per well. The bacteria, e.g., E. coli BL21 A1, were grown in nutrient broth (NB, Carl Roth GmbH+Co. KG, Karlsruhe, Germany) at 37° C. over night. To each well of the 96-well plate, 50 μL of the overnight culture adjusted to 5×10^6 CFU/mL in 1% TSB were added. Lyophilized peptides and peptidomimetics were dissolved in 1% TSB (tryptic soy broth) or water to give a final concentration of 250 μg/mL. Fifty μL of the peptide or peptidomimetics solution were added to the first well of a row on the plate and mixed. Fifty μL of the first well containing the peptide solution were transferred to the second well, mixed and again 50 μL transferred to the next well and so on. Thereby, a two-fold dilution series was obtained starting at 250 μg/mL in the first well down to 120 ng/mL in the 12th well of a row giving a final peptide or peptidomimetics concentration from 125 μg/mL (well 1) to 60 ng/mL (well 12). Plates were incubated at 37° C. for 20 hrs. The absorbance was measured at 595 nm using a TECAN micro plate spectrophotometer (Tecan, Germany). All peptides and peptidomimetics were measured in triplicates. Sterilized water was used as a negative control.
(§2) The following multidrug resistant bacteria strains were tested: • Eschericha coli 45849 and D31, • Klebsiella pneumoniae 123132 and K6, • Salmonella typhi S5 and Salmonella enterica subsp. enterica serovar Typhimurium (ATCC 700408), • Rhizobium radiobacter (ATCC 15955 deposited as Agrobacterium tumefaciens).

S. typhi S5 = format: cell-based, Salmonella typhi; settings: S5, 20 h
Protocol: as §1, §2

E. coli D31 = format: cell-based, Escherichia coli; settings: D31, 20 h
Protocol: as §1, §2

K. Pneumonia 123132 = experiment: Growth inhibition assay (MIC); format: cell-based, Klebsiella pneumoniae; settings: multidrug resistant strain; 1% TSB, 37° C., 20 hrs
Protocol: as §1, §2

[1] = system: K. Pneumonia K6, ATCC 700603; experiment: Growth inhibition assay (MIC); format: cell-based, Klebsiella pneumoniae; settings: multidrug resistant strain; 1% TSB, 37° C., 20 hrs
Protocol: as §1, §2

[2] = system: S. enterica subsp. Enterica serovar. typhi G10215 ATCC 700408; format: cell-based, Salmonella enterica; settings: ATCC 700408, 20 h
Protocol: as §1, §2

E. coli BL 21 AI = experiment: Growth inhibition assay (MIC); format: cell-based, Escherichia coli; settings: 1% TSB, 37° C., 20 hrs
Procedure, shortened: (§3)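 Peptides were serially diluted two-fold in 1% TSB, giving final concentrations from 125 μg/mL down to 60 ng/mL, and mixed with overnight bacterial culture adjusted to 5×10^6 CFU/mL in 1% TSB. After 20 hrs at 37 °C, growth was read as absorbance at 595 nm, in triplicate, with sterile water as negative control.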

M. luteus ATCC 10240 = format: cell-based, Micrococcus luteus; settings: ATCC 10240, 20 h
Procedure, shortened: as §3

E. coli 1103 = format: cell-based, Escherichia coli; settings: 1103, 20 h
Protocol: as §1
(§4) The bacteria strains were tested: • Eschericha coli 1103, 10233, BL 21 AI, DC 2, • Klebsiella pneumoniae 681, • Micrococcus luteus ATCC 10240, • Mycobacterium vaccae • Bactillus subtillis 347.

K. pneumonia 681 = format: cell-based, Klebsiella pneumoniae; settings: 20 h
Protocol: as §1, §4

B. subtilis 347 = format: cell-based, Bactillus subtillis; settings: 347, 20 h
Protocol: as §1, §4

[3] = system: R. radiobatter ATCC 15955; experiment: Growth inhibition assay (MIC); format: cell-based, Rhizobium radiobacter; settings: multidrug resistant strain; 1% TSB, 37° C., 20 hrs
Protocol: as §1, §2

[4] = 25% aqueous mouse serum, read-out: Half-life time

Compound	half-life at 0.061 mg/mL (in vitro; [4])	MIC E. coli 45849 (E. coli 45849)	MIC S. typhi S5 (S. typhi S5)	MIC E. coli D31 (E. coli D31)	MIC K. Pneumonia 123132 (K. Pneumonia 123132)	MIC K. Pneumonia K6, ATCC 700603 [1]	MIC S. enterica subsp. Enterica serovar. typhi G10215 ATCC 700408 [2]	MIC M. luteus ATCC 10240 (M. luteus ATCC 10240)	other results
CC[C@H](C)[C@H](NC(=O)[C@@H]1CCCN1C(=O)[C@H](CCCNC(=N)N)NC(=O)[C@@H]1CCCN1C(=O)[C@H](Cc1c[nH]cn1)NC(=O)[C@@H]1CCCN1C(=O)[C@@H]1CCCN1C(=O)[C@H](CCCNC(=N)N)NC(=O)[C@@H]1CCCN1C(=O)[C@H](CCCNC(=N)N)NC(=O)[C@@H]1CCCN1C(=O)[C@@H](NC(=O)[C@H](Cc1ccc(O)cc1)NC(=O)[C@@H](NC(=O)[C@@H]1CCCN1C(=O)[C@H](CCCNC(=N)N)NC(=O)[C@H](CC(N)=O)NC(=O)[C@H](CC(N)=O)NC(=O)[C@H](CCCN)NC(C)=O)C(C)C)[C@@H](C)CC)C(=O)N[C@@H](CCCNC(=N)N)C(=O)N[C@H](C(=O)O)C(C)C [compound 24] (Ac-[Orn]NNRPVYIPRPRPPHPRPIRV-OH)	4 h	–	–	–	–	–	–	–	–
CC[C@H](C)[C@H](NC(=O)[C@H](Cc1ccc(O)cc1)NC(=O)[C@@H](NC(=O)[C@@H]1CCCN1C(=O)[C@H](CCCNC(=N)N)NC(=O)[C@H](CC(N)=O)NC(=O)[C@H](CC(N)=O)NC(=O)[C@@H](N)CCCN)C(C)C)C(=O)N1CCC[C@H]1C(=O)N[C@@H](CCCNC(=N)N)C(=O)N1CCC[C@H]1C(=O)N[C@@H](CCCNC(=N)N)C(=O)N1CCC[C@H]1C(=O)N1CCC[C@H]1C(=O)N[C@@H](Cc1c[nH]cn1)C(=O)N1CCC[C@H]1C(=O)N[C@@H](CCCN)C(=O)N[C@@H](CC(C)C)C(N)=O [compound 81] (H-[Orn]NNRPVYIPRPRPPHP[Orn]L-NH2)	2 h	8 µg/mL (≈ 3.72 µM)	4 µg/mL (≈ 1.86 µM)	8 µg/mL (≈ 3.72 µM)	8 µg/mL (≈ 3.72 µM)	16 µg/mL (≈ 7.44 µM)	4 µg/mL (≈ 1.86 µM)	–	–
CC[C@H](C)[C@H](NC(=O)[C@H](Cc1ccc(O)cc1)NC(=O)[C@@H](NC(=O)[C@@H]1CCCN1C(=O)[C@H](CCCNC(=N)N)NC(=O)[C@H](CC(N)=O)NC(=O)[C@H](CC(N)=O)NC(=O)[C@H](CCCN)NC(C)=O)C(C)C)C(=O)N1CCC[C@H]1C(=O)N[C@@H](CCCNC(=N)N)C(=O)N1CCC[C@H]1C(=O)N[C@@H](CCCNC(=N)N)C(=O)N1CCC[C@H]1C(=O)N1CCC[C@H]1C(=O)N[C@@H](Cc1c[nH]cn1)C(=O)N1CCC[C@H]1C(=O)N[C@@H](CCCN)C(=O)N[C@@H](CC(C)C)C(N)=O [compound 82] (Ac-[Orn]NNRPVYIPRPRPPHP[Orn]L-NH2)	> 6 h	16 µg/mL (≈ 7.3 µM)	8 µg/mL (≈ 3.65 µM)	32 µg/mL (≈ 14.6 µM)	8 µg/mL (≈ 3.65 µM)	32 µg/mL (≈ 14.6 µM)	8 µg/mL (≈ 3.65 µM)	–	half-life (in vitro; 25% aqueous serum): The same stability
CC[C@H](C)[C@H](NC(=O)[C@H](Cc1ccc(O)cc1)NC(=O)[C@@H](NC(=O)[C@@H]1CCCN1C(=O)[C@H](CCCNC(=N)N)NC(=O)[C@H](CC(N)=O)NC(=O)[C@H](CC(N)=O)NC(=O)[C@H](CCCN)NC(C)=O)C(C)C)C(=O)N1CCC[C@H]1C(=O)N[C@@H](CCCNC(=N)N)C(=O)N1CCC[C@H]1C(=O)N[C@@H](CCCNC(=N)N)C(=O)N1CCC[C@H]1C(=O)N1CCC[C@H]1C(=O)N[C@@H](Cc1c[nH]cn1)C(=O)N1CCC[C@H]1C(=O)N[C@@H](CCCCNC(=N)N)C(=O)N[C@@H](CC(C)C)C(N)=O [compound 131] (Ac-[Orn]NNRPVYIPRPRPPHP[hArg]L-NH2)	2 h	–	–	–	–	–	–	0.5 µg/mL (≈ 0.222 µM)	MIC E. coli BL 21 AI (E. coli BL 21 AI): 4 µg/mL (≈ 1.78 µM); MIC E. coli 1103 (E. coli 1103): 16 µg/mL (≈ 7.12 µM); MIC K. pneumonia 681 (K. pneumonia 681): 16 µg/mL (≈ 7.12 µM); MIC B. subtilis 347 (B. subtilis 347): 32 µg/mL (≈ 14.2 µM)
CC[C@H](C)[C@H](NC(=O)[C@H](Cc1ccc(O)cc1)NC(=O)[C@@H](NC(=O)[C@@H]1CCCN1C(=O)[C@H](CCCNC(=N)N)NC(=O)[C@H](CC(N)=O)NC(=O)[C@H](CC(N)=O)NC(=O)[C@H](CCCN)N=C(N(C)C)N(C)C)C(C)C)C(=O)N1CCC[C@H]1C(=O)N[C@@H](CCCNC(=N)N)C(=O)N1CCC[C@H]1C(=O)N[C@@H](CCCNC(=N)N)C(=O)N1CCC[C@H]1C(=O)N1CCC[C@H]1C(=O)N[C@@H](Cc1c[nH]cn1)C(=O)N1CCC[C@H]1C(=O)N[C@@H](CCCN)C(=O)N[C@@H](CC(C)C)C(N)=O [compound 134] ({Orn(α-tetramethylguanidino)}-NNRPVYIPRPRPPHP[Orn]L-NH2; N-terminus and C-terminus assumed)	–	–	–	–	–	–	–	4 µg/mL (≈ 1.78 µM)	half-life (in vitro; [4]): > 6 h; MIC E. coli 1103 (E. coli 1103): 32 µg/mL (≈ 14.2 µM); MIC K. pneumonia 681 (K. pneumonia 681): 16 µg/mL (≈ 7.12 µM); MIC B. subtilis 347 (B. subtilis 347): >128 µg/mL
Ac-KNNRPVYIPKPRPPHPRL-NH2 [compound 22]	–	1 µg/mL	1 µg/mL	16 µg/mL	16 µg/mL	16 µg/mL	1 µg/mL	1.95 µg/mL	MIC R. radiobatter ATCC 15955 [3]: <0.16 µg/mL; MIC E. coli BL 21 AI (E. coli BL 21 AI): 1.95 µg/mL
GNNRPVYIPQPRPPHPRI [compound 1]	2 h	–	–	–	–	–	–	–	–
GNNRPVYIPQPRPPHPRI-NH2 [compound 4]	0.25 h	–	–	–	–	–	–	–	–
GNNRPVYIPQPRPPHPRL [compound 2]	2 h	–	–	–	–	–	–	–	–
GNNRPVYIPQPRPPHPRL-NH2 [compound 6]	0.25 h	0.5 µg/mL	0.125 µg/mL	1 µg/mL	16 µg/mL	16 µg/mL	0.125 µg/mL	–	–
GNNRPVYIPQPRPPHPRPIRV-NH2 [compound 110]	6 h	–	–	–	–	–	–	–	–
GNNRPVYIPRPRPPHPRLV-NH2 [compound 25]	–	1 µg/mL	2 µg/mL	64 µg/mL	16 µg/mL	16 µg/mL	1 µg/mL	1.95 µg/mL	MIC R. radiobatter ATCC 15955 [3]: 0.65 µg/mL; MIC E. coli BL 21 AI (E. coli BL 21 AI): 3.91 µg/mL
